Experimental data reported in patent publication US4362736A, “Guanidinothiazole compounds, and medical compositions containing them” (Yamanouchi Pharmaceutical Co., Ltd., priority 1979, dated 1982).
Structures can show the parent of a compound that is named as a salt.

Assays:
[1] = tested on: H2 -receptor; settings: Ash and Schild; Black et al.; cited from earlier work
[2] = tested on: Gastric acid secretion; experiment: Gastric acid secretion in pylorus-ligated rats; format: in vivo, Male Wister rats; settings: Rattus norvegicus, intraduodenal, 4 hrs., probit method, read-out: (B) Pylorus-ligated rats ED50
Protocol: Male Wister rats weighing about 200 g were deprived of food for 24 hrs. but allowed free access to water prior to the experiments in individual cages. […] Test compounds were intraduodenally given immediately after the ligation of pylorus. The animals were sacrificed 4 hrs. after drug administration and gastric contents were collected. […] The percent inhibition of gastric secretion by each dose of drugs was calculated from the acid outputs of control and of treated groups. ED50 values were determined by the probit method.

[3] = Acute toxicity in mice; settings: mouse, in vivo, iv, 7 days observation, up and down method; read-out: (C) LD50 in mice
Protocol: Drugs were injected intravenously in male ICR mice weighing about 35 g at a rate of 0.1 ml/10 g/10 sec and the animals were kept under observation for 7 days. LD50 values were determined by the up and down method using 10 animals. The data are shown in Table I, under column entitled (C).

[4] = tested on: Gastric acid secretion; experiment: Gastric acid secretion in anesthetized dogs (histamine-induced); format: in vivo, Mongrel dogs; settings: Canis lupus familiaris, iv, histamine infusion 160 μg/Kg-hr, dose producing 50% inhibition of acid output
Protocol: Mongrel dogs weighing 8 to 15 Kg were deprived of food for 24 hrs. and anesthetized intravenously with pentobarbital (30 mg/Kg). […] The gastric juice was collected from the gastric cannula by gravity drainage every 15 min. Test compounds were given intravenously after gastric secretion induced by a continuous intravenous infusion of histamine (160 μg/Kg-hr) reached a steady state.

Compound	inhibition of histamine effects on gastric acid secretion and heart rate in isolated guinea pig atrium [1]	ED50 [2]	LD50 at 168 h [3]	ED50 [4]
C/N=C(\S)NCCSCc1[nH]cnc1C [metiamide]	antagonized			
N#CNC(=N)CCSCc1csc(NC(=N)N)n1 [Example 3, N-cyano-3-[(2-guanidinothiazol-4-yl)methylthio]propionamidine]		13.8 mg/kg	147 mg/kg	0.0183 ± 0.0007 mg/kg
COc1ccc(CN(CCN(C)C)c2ccccn2)cc1 [mepyramine]	not inhibited			
NC(=O)N=C(N)CCSCc1csc(N=C(N)N)n1 [Example 9, N-carbamoyl-3-[(2-guanidinothiazol-4-yl)methylthio]propionamidine.di-hydrochloride]		12.7 mg/kg	97.8 mg/kg	0.0064 ± 0.0006 mg/kg
